In US20240132461A1, “FLAVONE DEAZA SPERMIDINE ANALOGUES AND THEIR USE TREATING CANCER” (FLORATEK PHARMA S.A., priority 2021, published 2024):

Key:
[1] = system: CO-04-0700; assay: PDX cytotoxicity assay, colon PDX CO-04-0700; assay type: cell-based
Description: (§1) PDX-derived cell cultures were obtained from tumors explanted from mice and isolated by mechanical and enzymatic dissociation. […] Cells were harvested and seeded in 96-wells plates at a density of 1.25 to 5×10^3 cells/well for cytotoxicity assays. Cells were incubated 48 h at 37° C. prior to addition of test molecules and vehicle (DMSO, 0.1%) at desired final concentrations. Cell viability was assessed before drugs' addition (T0) and 5 days after test molecules addition by measuring ATP cell content using CellTiter-Glo® Luminescent Cell Viability Assay (Promega) according to the manufacturer's instructions. Luciferase activity was measured on a luminometer (PerkinElmer® EnVision™). Each concentration of compounds was tested in triplicate.
(§2) Viability was calculated as a percentage of ATP value compared to vehicle treated controls.
(§3) For PDX primary cell cultures, the tumour tissue was washed with PBS containing antibiotic-antimycotic and non-tumour tissue and necrotic tumour tissues were separated. The tumour tissue was transferred to a new dish and cut into 1˜2 mm^3 fragments, resuspended in RPMI-1640 medium and centrifuged at 1,200 rpm for 6 min at room temperature. The pelleted material was resuspended with 15 mL of Tumour Cell Digestion Solution and incubated at 37° C. for 1 hour with agitation. […]

[2] = system: HBCx-3; assay: PDX cytotoxicity assay, breast PDX HBCx-3; assay type: cell-based
Description: as §1, §2, §3

[3] = system: ST-02-0322; assay: PDX cytotoxicity assay, stomach PDX ST-02-0322; assay type: cell-based
Description: as §1, §2, §3

[4] = system: breast cancer cell; assay: Cell viability assay, breast cancer cell lines (summary); assay type: cell-based; conditions: summary of Tables 4A and 4B; read-out: IC50s, breast cancer cell growth
Description: (§4) Antitumor activity of the compounds and doxorubicin as a positive control was assessed by using the CellTiter-Blue Cell Viability Assay (Promega, #G8082) or CellTiter-Glow® Luminescent Cell Viability assay (Promega # G7572) according to the manufacturer's instructions. The compounds were tested at 5 or 6 concentrations in half-log increments (highest concentration 30 μM-100 μM) in duplicate or triplicate well conditions.
(§5) Tumor cells were grown at 37° C. in a humidified atmosphere with 5% CO2 in RPMI 1640 or DMEM medium, supplemented with 10% (v/v) fetal calf serum and 50 μg/ml gentamicin for up to 20 passages, and were passaged once or twice weekly. Cells were harvested using TrypLE or PBS buffer containing 1 mM EDTA, and the percentage of viable cells is determined using a CASY Model TT cell counter (OMNI Life Science). Cells were harvested from exponential phase cultures, counted and plated in 96 well flat-bottom microtiter plates at a cell density depending on the cell line's growth rate (4,000-20,000 cells/well depending on the cell line's growth rate, up to 60,000 for hematological cancer cell lines) in RPMI 1640 or DMEM medium supplemented with 10% (v/v) fetal calf serum and 50 μg/ml gentamicin (140 μl/well). Cultures were incubated at 37° C. and 5% CO2 in a humidified atmosphere. After 24 h, 10 μl of test compounds or control medium are added, and left on the cells for another 72 h. Compounds were serially diluted in DMSO, transferred in cell culture medium, and added to the assay plates. The DMSO concentration was kept constant at <0.3% v/v across the assay plate. Viability of cells was quantified by the CellTiter-Blue® cell viability assay (Promega G8081) or CellTiter-Glow® Luminescent Cell Viability assay (Promega # G7572). Fluorescence (FU) was measured by using the EnSpire® multimode plate reader (Perkin Elmer) (excitation λ=570 nm, emission λ=600 nm) or luminescent detection of ATP in viable cells was used as parameter for proliferation. Luminescence was measured with the microplate luminometer (Promega or Perkin Elmer).
(§6) Sigmoidal concentration-response curves were fitted to the data points (test-versus-control, T/C values) obtained for each tumor model using 4 parameter non-linear curve fit (Charles River DRS Datawarehouse Software) or with GraphPad prism 5.02 software. IC50 values are reported as absolute IC50 values, being the concentration of test compound at the intersection of the concentration-response curves with T/C=50%

[5] = system: lung carcinoma cell; assay: Cell viability assay, lung carcinoma cell lines (summary); assay type: cell-based; conditions: summary of Tables 7A-E; read-out: IC50s, lung carcinoma cell growth
Description: as §4, §5, §6

[6] = biological target: T1, RSK2(Kin.Dom.1-N-terminal) (Homo sapiens, UniProt P51812); assay: KINOMEscan competition binding assay, RSK2(Kin.Dom.1-N-terminal)
T1 construct: RSK2(Kin.Dom.1-N-terminal); purchased Eurofins (KINOMEscan assay service); host or cells: E. coli BL21-derived (T7 phage) or HEK-293
T1 sequence (P51812 68-327 limits assumed): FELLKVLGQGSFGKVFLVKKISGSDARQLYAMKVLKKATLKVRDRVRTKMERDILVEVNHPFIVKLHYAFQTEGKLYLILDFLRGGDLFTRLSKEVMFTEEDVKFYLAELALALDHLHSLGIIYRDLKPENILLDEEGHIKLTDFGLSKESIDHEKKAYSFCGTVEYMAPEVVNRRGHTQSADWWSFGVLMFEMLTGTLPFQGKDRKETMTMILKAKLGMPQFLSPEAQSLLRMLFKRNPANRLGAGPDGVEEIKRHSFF
Excerpt: (§7) The Hill Slope was set to −1.

[7] = system: ES-06-0122; assay: PDX cytotoxicity assay, esophagus PDX ES-06-0122; assay type: cell-based
Description: as §1, §2, §3

[8] = system: GA-10; assay: Cell viability assay, lymphoma cell line GA-10; assay type: cell-based; conditions: Homo sapiens; GA-10 lymphoma cell line
Description: as §4
(§8) Tumor cells were grown at 37° C. in a humidified atmosphere with 5% CO2 in RPMI 1640 or DMEM medium, supplemented with 10% (v/v) fetal calf serum and 50 μg/ml gentamicin for up to 20 passages, and were passaged once or twice weekly. Cells were harvested using TrypLE or PBS buffer containing 1 mM EDTA, and the percentage of viable cells is determined using a CASY Model TT cell counter (OMNI Life Science). Cells were harvested from exponential phase cultures, counted and plated in 96 well flat-bottom microtiter plates at a cell density depending on the cell line's growth rate (4,000-20,000 cells/well depending on the cell line's growth rate, up to 60,000 for hematological cancer cell lines) in RPMI 1640 or DMEM medium supplemented with 10% (v/v) fetal calf serum and 50 μg/ml gentamicin (140 μl/well). […] Viability of cells was quantified by the CellTiter-Blue® cell viability assay (Promega G8081) or CellTiter-Glow® Luminescent Cell Viability assay (Promega # G7572). […]

[9] = system: NCI-H1299; assay: Cell viability assay, non-small cell lung carcinoma cell line NCI-H1299; assay type: cell-based; conditions: Homo sapiens
Description: as §4, §5, §6

[10] = system: NALM-6; assay: Cell viability assay, leukaemia cell line NALM-6; assay type: cell-based; conditions: Homo sapiens; NALM-6 leukaemia cell line
Description: as §4, §8

[11] = biological target: T2, SNARK (Homo sapiens, UniProt Q9H093); assay: KINOMEscan competition binding assay, SNARK
T2 construct: purchased Eurofins (KINOMEscan assay service); host or cells: E. coli BL21-derived (T7 phage) or HEK-293
T2 sequence (Q9H093 whole entry): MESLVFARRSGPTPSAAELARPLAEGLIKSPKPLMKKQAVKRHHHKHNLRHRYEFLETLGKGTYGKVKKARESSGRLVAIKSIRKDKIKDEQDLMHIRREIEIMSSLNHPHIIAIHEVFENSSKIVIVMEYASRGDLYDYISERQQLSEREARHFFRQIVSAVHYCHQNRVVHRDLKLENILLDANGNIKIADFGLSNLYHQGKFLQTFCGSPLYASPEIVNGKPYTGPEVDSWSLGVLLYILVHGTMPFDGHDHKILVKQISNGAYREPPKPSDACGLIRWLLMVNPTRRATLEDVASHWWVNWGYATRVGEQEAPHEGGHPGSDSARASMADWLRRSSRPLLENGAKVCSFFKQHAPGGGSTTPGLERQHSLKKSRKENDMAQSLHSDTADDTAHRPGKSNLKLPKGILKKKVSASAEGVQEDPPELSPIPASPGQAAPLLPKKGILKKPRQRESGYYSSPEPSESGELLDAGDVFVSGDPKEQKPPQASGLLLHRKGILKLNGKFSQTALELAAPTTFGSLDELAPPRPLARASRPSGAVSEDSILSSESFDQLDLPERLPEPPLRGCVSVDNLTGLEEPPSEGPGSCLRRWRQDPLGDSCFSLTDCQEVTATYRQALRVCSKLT
Excerpt: as §7

[12] = biological target: T3, PIM3 (Homo sapiens, UniProt Q86V86); assay: KINOMEscan competition binding assay, PIM3
T3 construct: purchased Eurofins (KINOMEscan assay service); host or cells: E. coli BL21-derived (T7 phage) or HEK-293
Excerpt: as §7

[13] = system: leukaemia cell; assay: Cell viability assay, leukaemia cell lines (summary); assay type: cell-based; conditions: summary of Table 6A; read-out: IC50, leukaemia cell growth
Description: as §4, §8

[14] = system: SU-DHL-4; assay: Cell viability assay, lymphoma cell line SU-DHL-4; assay type: cell-based; conditions: Homo sapiens; SU-DHL-4 lymphoma cell line
Description: as §4, §8

[15] = system: brain cancer cell; assay: Cell viability assay, brain cancer cell lines (summary); assay type: cell-based; conditions: summary of Tables 3A-D; read-out: IC50s, brain cancer cell growth
Description: as §4, §5, §6

[16] = system: K562; assay: Cell viability assay, leukaemia cell line K562; assay type: cell-based; conditions: Homo sapiens
Description: as §4, §8

[17] = system: CH-17-0091; assay: PDX cytotoxicity assay, bile duct PDX CH-17-0091; assay type: cell-based
Description: as §1, §2, §3

COc1c(O)ccc2c(=O)cc(-c3ccc(CNCCCCNCCCN)cc3)oc12 [SND164] was tested, and the IC50 [1] was 7 µM, the IC50 [2] was 10 µM and the IC50 [3] was 5.45 µM. For the same compound, the IC50 [4] was < 10 µM, the IC50 [5] was < 20 µM and the Kd [6] was 1.4 µM. It also gave an IC50 [7] of 5.7 µM, an IC50 [8] of 3.9 µM and an IC50 [9] of 1.25 µM. For the same compound, the IC50 [10] was 4.45 µM, the Kd [11] was 0.9 µM and the Kd [12] was 0.43 µM. The IC50 [13] was < 10 µM, the IC50 [14] was 3.3 µM and the IC50 [15] was < 10 µM. For the same compound, the IC50 [16] was 3.48 µM and the IC50 [17] was 13.8 µM.
